Test: recombinant barcode read abundance after kanamycin selection (control-corrected) (log10(CPM+1)); higher = more efficient recombination; sequences stand for … in AGTGCAGAGAAAATCGGCCAGTTTTCTCTGCCTGCAGTCCGCATGCCGT…AGATTTATGCAGCGGACTGCCTTTCTCCCAAAGTGATAAACCGGACAGTATCATGGACCGGTTTTCCCGGTAATCCGTATTTGCAAGGTTGGTTTCACT; site = the 11-nt target
How it was run: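 IS621 bridge RNA target-binding loops were paired with targets in a pooled library tested in E. coli. After co-electroporation with a donor plasmid, cells were plated in two replicates on chloramphenicol/ampicillin LB agar (control) and on chloramphenicol/ampicillin/kanamycin carrying 0.1 mM IPTG. Barcodes at recombinant junctions were counted as counts per million, averaged and control-corrected to give recombination efficiency. Values are log10(CPM+1).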
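Note: IS621 recombinase and bridge RNA in Escherichia coli cells.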

With “CGGTGAACTTGGGTTCTAACCTGTTGCCT (site CCGTGAACTAG)” the “recombinant barcode read abundance (log10)” value was 0.148.
For “CGGTGAACTTGGGTTCTAACCTGTTGCCT (site CGGTGAACTAG)”, the “recombinant barcode read abundance (log10)” value was 1.16.
For “CGGTGAACTTGGGTTCTAACCTGTTGCCT (site CTGTGAACTAG)”, the “recombinant barcode read abundance (log10)” value was 0.146.
For “CGTAAGCCTTGGGTTCTAACCTGTTGCAT (site CGCAAGCCTAT)”, the “recombinant barcode read abundance (log10)” value was 0.265.
With “CGTAAGCCTTGGGTTCTAACCTGTTGCAT (site CGTAAGCCTAT)” the “recombinant barcode read abundance (log10)” value was 0.57.
For “CGTAGAGCTTGGGTTCTAACCTGTTGCCT (site AGTAGAACTAG)”, the “recombinant barcode read abundance (log10)” value was 0.0247.
In the case of “CGTAGAGCTTGGGTTCTAACCTGTTGCCT (site CGTAGAGCTAG)”, the “recombinant barcode read abundance (log10)” value is reported as 0.349.
With “CGTAGCTCTTGGGTTCTAACCTGTTGCCT (site CGAAGCTCTAG)” the “recombinant barcode read abundance (log10)” value was 0.133.
For “CGTAGCTCTTGGGTTCTAACCTGTTGCCT (site CGCAGCTCTAG)”, the “recombinant barcode read abundance (log10)” value was 0.128.
In the case of “CGTAGCTCTTGGGTTCTAACCTGTTGCCT (site CGGAGCTCTAG)”, the “recombinant barcode read abundance (log10)” value is reported as 0.134.
With “CGTAGCTCTTGGGTTCTAACCTGTTGCCT (site CGTAGCTCTAG)” the “recombinant barcode read abundance (log10)” value was 0.516.
In the case of “CGTATCACTTGGGTTCTAACCTGTTGCCT (site CCGATCACTAG)”, the “recombinant barcode read abundance (log10)” value is reported as 0.0447.
For “CGTATCACTTGGGTTCTAACCTGTTGCCT (site CGTATCACTAG)”, the “recombinant barcode read abundance (log10)” value was 0.0527.
With “CGTATGGCTTGGGTTCTAACCTGTTGCCT (site CGTATGGCTAG)” the “recombinant barcode read abundance (log10)” value was 0.349.
With “CGTATGGCTTGGGTTCTAACCTGTTGCCT (site CGTGGGGCTAG)” the “recombinant barcode read abundance (log10)” value was 0.279.
For “CGTCACCCTTGGGTTCTAACCTGTTGCCT (site CGTCAACCTAG)”, the “recombinant barcode read abundance (log10)” value was 0.0616.
For “CGTCACCCTTGGGTTCTAACCTGTTGCCT (site CGTCACCCTAG)”, the “recombinant barcode read abundance (log10)” value was 0.173.
With “CGTCACCCTTGGGTTCTAACCTGTTGCCT (site CGTCAGCCTAG)” the “recombinant barcode read abundance (log10)” value was 0.12.
In the case of “CGTCACCCTTGGGTTCTAACCTGTTGCCT (site CGTCATCCTAG)”, the “recombinant barcode read abundance (log10)” value is reported as 0.126.
For “CGTCAGACTTGGGTTCTAACCTGTTGCCT (site CGTAAGACTAG)”, the “recombinant barcode read abundance (log10)” value was 0.
With “CGTCAGACTTGGGTTCTAACCTGTTGCCT (site CGTCAGACTAG)” the “recombinant barcode read abundance (log10)” value was 0.109.
With “CGTCAGACTTGGGTTCTAACCTGTTGCCT (site CGTGAGACTAG)” the “recombinant barcode read abundance (log10)” value was 0.212.
For “CGTCAGACTTGGGTTCTAACCTGTTGCCT (site CGTTAGACTAG)”, the “recombinant barcode read abundance (log10)” value was 0.
For “CGTCTACCTTGGGTTCTAACCTGTTGCTT (site AGTCTACCTAA)”, the “recombinant barcode read abundance (log10)” value was 0.297.
In the case of “CGTCTACCTTGGGTTCTAACCTGTTGCTT (site CGTCTACCTAA)”, the “recombinant barcode read abundance (log10)” value is reported as 0.242.
In the case of “CGTCTCCCTTGGGTTCTAACCTGTTGCTT (site CGTATCCCTCA)”, the “recombinant barcode read abundance (log10)” value is reported as 0.108.
With “CGTCTCCCTTGGGTTCTAACCTGTTGCTT (site CGTCTCCCTAA)” the “recombinant barcode read abundance (log10)” value was 0.162.
In the case of “CGTGAACCTTGGGTTCTAACCTGTTGCGT (site CGTAAACCTAC)”, the “recombinant barcode read abundance (log10)” value is reported as 2.19.
In the case of “CGTGAACCTTGGGTTCTAACCTGTTGCGT (site CGTCAACCTAC)”, the “recombinant barcode read abundance (log10)” value is reported as 0.34.
For “CGTGAACCTTGGGTTCTAACCTGTTGCGT (site CGTGAACCTAC)”, the “recombinant barcode read abundance (log10)” value was 2.79.
With “CGTGAACCTTGGGTTCTAACCTGTTGCGT (site CGTTAACCTAC)” the “recombinant barcode read abundance (log10)” value was 0.751.
With “CGTGCGGCTTGGGTTCTAACCTGTTGCCT (site AGTGCGGCTAG)” the “recombinant barcode read abundance (log10)” value was 0.0463.
For “CGTGCGGCTTGGGTTCTAACCTGTTGCCT (site CGTGCGGCTAG)”, the “recombinant barcode read abundance (log10)” value was 0.486.
In the case of “CGTGCGGCTTGGGTTCTAACCTGTTGCCT (site GGTGCGGCTAG)”, the “recombinant barcode read abundance (log10)” value is reported as 0.946.
In the case of “CGTGCGGCTTGGGTTCTAACCTGTTGCCT (site TGTGCGGCTAG)”, the “recombinant barcode read abundance (log10)” value is reported as 0.0337.
For “CGTGCGTCTTGGGTTCTAACCTGTTGCCT (site AGTGCGTCTAG)”, the “recombinant barcode read abundance (log10)” value was 0.208.
For “CGTGCGTCTTGGGTTCTAACCTGTTGCCT (site CGTGCGTCTAG)”, the “recombinant barcode read abundance (log10)” value was 0.918.
For “CGTGCGTCTTGGGTTCTAACCTGTTGCCT (site GGTGCGTCTAG)”, the “recombinant barcode read abundance (log10)” value was 0.38.
In the case of “CGTGCGTCTTGGGTTCTAACCTGTTGCCT (site TGTGCGTCTAG)”, the “recombinant barcode read abundance (log10)” value is reported as 0.0337.
In the case of “CGTGGGCCTTGGGTTCTAACCTGTTGCCT (site CATGGGCCTAG)”, the “recombinant barcode read abundance (log10)” value is reported as 0.295.
With “CGTGGGCCTTGGGTTCTAACCTGTTGCCT (site CCTGGGCCTAG)” the “recombinant barcode read abundance (log10)” value was 0.208.
For “CGTGGGCCTTGGGTTCTAACCTGTTGCCT (site CGTGGGCCTAG)”, the “recombinant barcode read abundance (log10)” value was 0.0583.
In the case of “CGTGGGCCTTGGGTTCTAACCTGTTGCCT (site CTTGGGCCTAG)”, the “recombinant barcode read abundance (log10)” value is reported as 0.0694.
With “CGTGGTCCTTGGGTTCTAACCTGTTGCCT (site CGTGGTCCTAA)” the “recombinant barcode read abundance (log10)” value was 0.0142.
With “CGTGGTCCTTGGGTTCTAACCTGTTGCCT (site CGTGGTCCTAC)” the “recombinant barcode read abundance (log10)” value was 0.413.
With “CGTGGTCCTTGGGTTCTAACCTGTTGCCT (site CGTGGTCCTAG)” the “recombinant barcode read abundance (log10)” value was 1.26.
For “CGTGGTCCTTGGGTTCTAACCTGTTGCCT (site CGTGGTCCTAT)”, the “recombinant barcode read abundance (log10)” value was 0.657.
For “CGTTAACCTTGGGTTCTAACCTGTTGCGT (site CGTAAACCTAC)”, the “recombinant barcode read abundance (log10)” value was 0.423.
With “CGTTAACCTTGGGTTCTAACCTGTTGCGT (site CGTCAACCTAC)” the “recombinant barcode read abundance (log10)” value was 1.48.
For “CGTTAACCTTGGGTTCTAACCTGTTGCGT (site CGTGAACCTAC)”, the “recombinant barcode read abundance (log10)” value was 0.177.
With “CGTTAACCTTGGGTTCTAACCTGTTGCGT (site CGTTAACCTAC)” the “recombinant barcode read abundance (log10)” value was 1.37.
For “CGTTAGACTTGGGTTCTAACCTGTTGCCT (site CGTAAGACTAG)”, the “recombinant barcode read abundance (log10)” value was 0.113.
In the case of “CGTTAGACTTGGGTTCTAACCTGTTGCCT (site CGTCAGACTAG)”, the “recombinant barcode read abundance (log10)” value is reported as 0.267.
With “CGTTAGACTTGGGTTCTAACCTGTTGCCT (site CGTGAGACTAG)” the “recombinant barcode read abundance (log10)” value was 0.147.
In the case of “CGTTAGACTTGGGTTCTAACCTGTTGCCT (site CGTTAGACTAG)”, the “recombinant barcode read abundance (log10)” value is reported as 0.469.
In the case of “CGTTCAACTTGGGTTCTAACCTGTTGCCT (site CGTTCAACTAG)”, the “recombinant barcode read abundance (log10)” value is reported as 0.0537.
For “CGTTCAACTTGGGTTCTAACCTGTTGCCT (site CGTTCCACTAG)”, the “recombinant barcode read abundance (log10)” value was 0.0618.
For “CGTTCAACTTGGGTTCTAACCTGTTGCCT (site CGTTCGACTAG)”, the “recombinant barcode read abundance (log10)” value was 0.153.
For “CGTTCAACTTGGGTTCTAACCTGTTGCCT (site CGTTCTACTAG)”, the “recombinant barcode read abundance (log10)” value was 0.0864.
For “CGTTCATCTTGGGTTCTAACCTGTTGCCT (site CGATCATCTAG)”, the “recombinant barcode read abundance (log10)” value was 0.
For “CGTTCATCTTGGGTTCTAACCTGTTGCCT (site CGCTCATCTAG)”, the “recombinant barcode read abundance (log10)” value was 0.0301.
With “CGTTCATCTTGGGTTCTAACCTGTTGCCT (site CGGTCATCTAG)” the “recombinant barcode read abundance (log10)” value was 0.0446.
With “CGTTCATCTTGGGTTCTAACCTGTTGCCT (site CGTTCATCTAG)” the “recombinant barcode read abundance (log10)” value was 0.0763.
For “CGTTCTACTTGGGTTCTAACCTGTTGCCT (site CGTTCAACTAG)”, the “recombinant barcode read abundance (log10)” value was 0.0719.
In the case of “CGTTCTACTTGGGTTCTAACCTGTTGCCT (site CGTTCCACTAG)”, the “recombinant barcode read abundance (log10)” value is reported as 0.286.
For “CGTTCTACTTGGGTTCTAACCTGTTGCCT (site CGTTCGACTAG)”, the “recombinant barcode read abundance (log10)” value was 0.0414.
